From doi:10.1101/2021.02.18.431786v1 (biorxiv, 2021)

Target: ABCG2 (Homo sapiens, UniProt Q9UNQ0)
Assay: biochemical

Sequence of ABCG2 (Q9UNQ0 whole entry): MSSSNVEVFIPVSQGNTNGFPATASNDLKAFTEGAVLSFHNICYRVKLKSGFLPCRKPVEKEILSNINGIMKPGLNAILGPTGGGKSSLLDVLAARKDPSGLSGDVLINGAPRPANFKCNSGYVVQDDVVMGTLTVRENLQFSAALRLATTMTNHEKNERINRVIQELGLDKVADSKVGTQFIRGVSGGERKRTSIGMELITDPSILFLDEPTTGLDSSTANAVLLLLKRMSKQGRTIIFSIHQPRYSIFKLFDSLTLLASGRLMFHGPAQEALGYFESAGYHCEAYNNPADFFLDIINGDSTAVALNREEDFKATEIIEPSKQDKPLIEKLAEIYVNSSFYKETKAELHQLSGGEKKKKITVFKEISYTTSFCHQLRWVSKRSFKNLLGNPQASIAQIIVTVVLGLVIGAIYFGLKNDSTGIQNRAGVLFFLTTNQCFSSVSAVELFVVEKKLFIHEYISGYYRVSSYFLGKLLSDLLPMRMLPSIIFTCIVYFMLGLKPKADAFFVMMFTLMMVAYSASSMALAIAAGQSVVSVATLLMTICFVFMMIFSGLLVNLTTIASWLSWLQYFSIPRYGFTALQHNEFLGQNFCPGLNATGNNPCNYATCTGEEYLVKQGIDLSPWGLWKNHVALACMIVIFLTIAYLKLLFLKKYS

EC50 [µM]	SMILES
0.08 ± 0.01	COc1cc2c(cc1OC)CN(CCc1ccc(NC(=O)c3cc(OC)c(OC)cc3NC(=O)c3cnc4ccccc4c3)cc1)CC2 [tariquidar]
11.7 ± 0.3	CC[C@@]1(O)C(=O)OCc2c1cc1n(c2=O)Cc2cc3c(CN(C)C)c(O)ccc3nc2-1 [topotecan]

SMILES	EC50 [µM]
O=C1c2c(O)ccc(O)c2C(=O)c2c(NCCNCCO)ccc(NCCNCCO)c21 [mitoxantrone]	18.3 ± 2.2
